pIC50, pKi: −log10 of the molar value. Several values for one entry are separate records, joined by “and”; a condition that tells them apart may be missing. Identical values can stand only once. Like-named read-outs stand apart in the source and are kept apart here.
Tests used:
human VR1 [1] = biological target: T1, human VR1 (Homo sapiens, UniProt Q8NER1); assay: Human VR1 functional assay (intracellular Ca++, FLIPR, capsaicin challenge); assay type: cell-based
T1 construct: expressed in transfected cells; host or cells: HEK293
Description: The functional activity of the test compounds was determined by measuring changes in intracellular calcium concentration using a Ca^++-sensitive fluorescent dye and FLIPR™ technology.
EC50 or IC50 values were determined from dose-response studies.

human VR1 [2] = biological target: T1, human VR1; assay: Human VR1 [3H] RTX binding assay; conditions: for inhibition at 1 µM: compound at 1 μM; for pKi: hVR1
Description: Compounds of the present invention were tested for their ability to inhibit the binding of [^3H] RTX to hVR1 receptors in a [^3H]
HEK293 cells were transfected with human VR1 vanilloid receptors and washed with Hank's Balanced Salt Solution, dissociated with cell dissociation buffer (Sigma), and then centrifuged at 1000×g for 5 min. […] The pelleted membranes were kept in an −80° C. freezer.
Approximately 120 μg protein/ml from membranes were incubated with indicated concentrations of [^3H] RTX in 0.5 ml of the HEPES buffer (pH 7.4) containing 0.25 mg/mL fatty acid-free bovine serum albumin at 37° C. for 60 min. […] The tip of the microcentrifuge tube containing the pellet was cut off. Bound radioactivity was quantified by scintillation counting. Non-specific binding was tested in the presence of 200 nM unlabeled RTX.

[3] = FLIPR functional assay IC50 hVR1 60 min, 60 min
[4] = hVR1, capsaicin challenge, read-out: FLIPR functional assay IC50 hVR1
[5] = 3H-RTX binding, read-out: 3H-RTX binding assay Ki hVR1
[6] = 3H-RTX binding assay Ki hVR1, 3H-RTX binding

T1 sequence (Q8NER1 whole entry): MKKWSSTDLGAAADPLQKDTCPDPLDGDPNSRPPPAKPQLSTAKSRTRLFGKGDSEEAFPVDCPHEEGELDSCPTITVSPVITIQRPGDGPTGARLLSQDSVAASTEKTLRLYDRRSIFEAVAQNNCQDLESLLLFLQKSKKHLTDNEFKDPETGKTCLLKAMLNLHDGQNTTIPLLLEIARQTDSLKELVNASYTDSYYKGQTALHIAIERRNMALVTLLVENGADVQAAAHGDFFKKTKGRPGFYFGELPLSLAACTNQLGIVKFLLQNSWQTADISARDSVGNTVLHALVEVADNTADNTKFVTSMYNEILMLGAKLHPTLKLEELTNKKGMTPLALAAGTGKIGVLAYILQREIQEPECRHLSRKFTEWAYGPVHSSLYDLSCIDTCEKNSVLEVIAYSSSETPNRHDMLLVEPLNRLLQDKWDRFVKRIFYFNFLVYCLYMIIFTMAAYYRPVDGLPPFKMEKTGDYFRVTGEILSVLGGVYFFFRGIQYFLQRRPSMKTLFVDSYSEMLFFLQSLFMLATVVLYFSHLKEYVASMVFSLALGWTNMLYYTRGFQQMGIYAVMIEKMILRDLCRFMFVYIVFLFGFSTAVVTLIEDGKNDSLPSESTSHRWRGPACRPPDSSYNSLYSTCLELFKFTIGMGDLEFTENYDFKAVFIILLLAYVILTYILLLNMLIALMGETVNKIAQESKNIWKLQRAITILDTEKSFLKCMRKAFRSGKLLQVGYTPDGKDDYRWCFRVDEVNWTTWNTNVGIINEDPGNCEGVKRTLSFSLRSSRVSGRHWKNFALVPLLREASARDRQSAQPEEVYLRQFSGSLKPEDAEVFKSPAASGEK

| pIC50 (human VR1 [1]; [3]) | pIC50 (human VR1 [1]; [4]) | inhibition at 1 µM (human VR1 [2]; 3H-RTX binding) | pKi (human VR1 [2]; [5]) | Structure (SMILES) | pKi (human VR1 [2]; [6]) |
| --- | --- | --- | --- | --- | --- |
| 6.43 | 5.64 | 98% | 7.12 | CN(Cc1ccccc1)c1ccc(C(=O)Nc2cnc3ccccc3c2)cc1 [4-(Benzyl-methyl-amino)-N-quinolin-3-yl-benzamide] |  |
|  | 5.57 | 12% |  | CCCCCNc1cccc(C(=O)Nc2cnc3ccccc3c2)c1 [3-Pentylamino-N-quinolin-3-yl-benzamide] |  |
| 5.72 |  |  | 6.75 | O=C(CCc1ccc(C23CC4CCCC(CC(C4)C2)C3)cc1)Nc1cnc2ccccc2c1 [N-Quinolin-3-yl-3-(4-tricyclo{5.3.1.13,9}dodec-1-yl-phenyl)-propionamide] |  |
| 6.90 | 6.77 | 99% | 8.29 | O=C(Nc1cnc2ccccc2c1)c1ccc(N2CC3CCCC(C3)C2)cc1 [4-(3-Aza-bicyclo{3.3.1}non-3-yl)-N-quinolin-3-yl-benzamide] |  |
|  | 5.70 | 12% |  | CN(C(=O)c1ccc(N(C)C2CCCCC2)cc1)c1cnc2ccccc2c1 [4-(Cyclohexyl-methyl-amino)-N-methyl-N-quinolin-3-yl-benzamide] |  |
|  | 6.40 | 100% | 7.85 | CN(c1ccc(C(=O)Nc2cnc3ccccc3c2)cc1)C1CCCCCC1 [4-(Cycloheptyl-methyl-amino)-N-quinolin-3-yl-benzamide] |  |
| 6.82 |  | 105% | 7.89 | CC(C)=CCC[C@H](C)CCN(C)c1ccc(C(=O)Nc2cnc3ccccc3c2)cc1 |  |
|  | 5.04 | 31% |  | O=C(Nc1cnc2ccccc2c1)c1ccc(NCCc2ccccc2)cc1 [4-Phenethylamino-N-quinolin-3-yl-benzamide] |  |
|  | 5.00 | 55% | 6.86 | CCC(C)(C)c1ccc(C=CCC(=O)Nc2cnc3ccccc3c2)cc1 [4-{4-(1,1-Dimethyl-propyl)-phenyl}-but-3-enoic acid quinolin-3-ylamide] |  |
|  | 5.82 | 90% | 7.01 | CCCCCCCN(C)c1ccc(C(=O)Nc2cnc3ccccc3c2)cn1 [6-(Heptyl-methyl-amino)-N-quinolin-3-yl-nicotinamide] |  |
| 6.55 | 5.43 | 80% | 8.01 | O=C(Nc1cnc2ccccc2c1)c1ccc(N2CC3CCCC(C3)C2)nc1 [6-(3-Aza-bicyclo{3.3.1}non-3-yl)-N-quinolin-3-yl-nicotinamide] |  |
|  | 6.54 |  | 7.73 | O=C(Nc1cnc2ccccc2c1)c1ccc(N2CCCCCCC2)cc1 [4-Azocan-1-yl-N-quinolin-3-yl-benzamide] |  |
|  | 5.77 | 104% | 7.80 | CN(CC1CCCCC1)c1ccc(C(=O)Nc2cnc3ccccc3c2)cc1 [4-(Cyclohexylmethyl-methyl-amino)-N-quinolin-3-yl-benzamide] |  |
| 6.27 | 5.92 | 97% | 6.61 | CN(CCc1ccccc1)c1ccc(C(=O)Nc2cnc3ccccc3c2)cn1 [6-(Methyl-phenethyl-amino)-N-quinolin-3-yl-nicotinamide] |  |
|  | 5.96 and 5.00 |  | 7.88 and 7.82 | CCCCC(C)c1ccc(C(=O)Nc2cnc3ccccc3c2)cc1 (centres unmarked) |  |
| 5.10 |  | 57% | 3.55 | CCCCCNc1ccc(C(=O)Nc2cnc3ccccc3c2)cn1 [6-Pentylamino-N-quinolin-3-yl-nicotinamide] |  |
| 7.32 |  | 101% | 7.44 | CCC=CCCCCCN(C)c1ccc(C(=O)Nc2cnc3ccccc3c2)cc1 [4-(Methyl-non-6-enyl-amino)-N-quinolin-3-yl-benzamide] |  |
| 6.81 | 5.00 | 97% | 7.13 | CN(CCCc1ccccc1)c1ccc(C(=O)Nc2cnc3ccccc3c2)cc1 [4-{Methyl-(3-phenyl-propyl)-amino}-N-quinolin-3-yl-benzamide] |  |
|  | 7.07 | 104% | 7.48 | O=C(Nc1cnc2ccccc2c1)c1ccc(N2CC[C@@H]3CCCC[C@H]3C2)nc1 (relative stereo) [trans-6-(Octahydro-isoquinolin-2-yl)-N-quinolin-3-yl-nicotinamide] |  |

| pIC50 (human VR1 [1]; [3]) | pIC50 (human VR1 [1]; [4]) | inhibition at 1 µM (human VR1 [2]; 3H-RTX binding) | pKi (human VR1 [2]; [5]) | Structure (SMILES) | pKi (human VR1 [2]; [6]) |
| --- | --- | --- | --- | --- | --- |
|  | 6.39 | 93% | 7.81 | CCCN1CCc2cc(C(=O)Nc3cnc4ccccc4c3)ccc21 [1-Propyl-2,3-dihydro-1H-indole-5-carboxylic acid quinolin-3-ylamide] |  |
|  | 5.97 | 51% | 5.97 | CCCN1CCc2cc(CCC(=O)Nc3cnc4ccccc4c3)ccc21 [3-(1-Propyl-2,3-dihydro-1H-indol-5-yl)-N-quinolin-3-yl-propionamide] |  |
|  | 6.32 | 59% | 6.58 | CCCn1ccc2cc(CCC(=O)Nc3cnc4ccccc4c3)ccc21 [3-(1-Propyl-1H-indol-5-yl)-N-quinolin-3-yl-propionamide] |  |
|  | 6.49 | 93% | 7.28 | CCC(C)(C)c1cc(OC)c(CCC(=O)Nc2cnc3ccccc3c2)c(OC)c1 [3-{4-(1,1-Dimethyl-propyl)-2,6-dimethoxy-phenyl}-N-quinolin-3-yl-propionamide] |  |
|  | 5.00 |  | 7.21 | O=C(Nc1cnc2ccccc2c1)c1ccc2c(c1)CCCC2 [5,6,7,8-Tetrahydro-naphthalene-2-carboxylic acid quinolin-3-ylamide] |  |
| 6.60 | 5.29 | 102% | 7.52 | O=C(Nc1cnc2ccccc2c1)c1ccc(N2CCCCCCC2)nc1 [6-Azocan-1-yl-N-quinolin-3-yl-nicotinamide] |  |
|  | 6.41 | 43% |  | CN(Cc1ccccc1)c1ccc(C(=O)Nc2cnc3ccccc3c2)cn1 [6-(Benzyl-methyl-amino)-N-quinolin-3-yl-nicotinamide] |  |
| 6.59 |  | 93% | 6.97 | CCCCCN(CCCCC)c1cccc(C(=O)Nc2cnc3ccccc3c2)c1 [3-Dipentylamino-N-quinolin-3-yl-benzamide] |  |
|  | 5.00 |  | 6.80 | O=C(CCc1ccc2c(c1)CCC2)Nc1cnc2ccccc2c1 [3-Indan-5-yl-N-quinolin-3-yl-propionamide] |  |
| 6.44 |  | 105% | 7.15 | CCCN(CCc1ccccc1)c1ccc(C(=O)Nc2cnc3ccccc3c2)cc1 [4-(Phenethyl-propyl-amino)-N-quinolin-3-yl-benzamide] |  |
|  | 6.77 | 81% | 6.91 | CCCCC1CCC(C(=O)Nc2cnc3ccccc3c2)CC1 (centres unmarked) [4-Butyl-cyclohexanecarboxylic acid quinolin-3-ylamide] |  |
|  | 6.73 |  | 7.55 | CN(c1ccc(C(=O)Nc2cnc3ccccc3c2)cc1)C1CCCC1 [4-(Cyclopentyl-methyl-amino)-N-quinolin-3-yl-benzamide] |  |
|  | 5.10 |  | 6.44 | CC(C)n1c(C(F)(F)F)nc2cc(C(=O)Nc3cnc4ccccc4c3)ccc21 [1-Isopropyl-2-trifluoromethyl-1H-benzoimidazole-5-carboxylic acid quinolin-3-ylamide] |  |
| 7.34 | 5.72 | 104% | 7.53 | CCC=CCCCN(C)c1ccc(C(=O)Nc2cnc3ccccc3c2)cc1 [4-(Hept-4-enyl-methyl-amino)-N-quinolin-3-yl-benzamide] |  |
|  | 5.82 | 102% | 7.51 | Cc1ccc(C(C)CCN(C)c2ccc(C(=O)Nc3cnc4ccccc4c3)cc2)o1 (centres unmarked) [4-{Methyl-{3-(5-methyl-furan-2-yl)-butyl}-amino}-N-quinolin-3-yl-benzamide] |  |
| 7.13 | 7.36 | 103% | 8.31 | O=C(Nc1cnc2ccccc2c1)c1ccc2c(c1)CCN2C1CCCCC1 [1-Cyclohexyl-2,3-dihydro-1H-indole-5-carboxylic acid quinolin-3-ylamide] |  |
|  | 5.00 | 20% |  | CCCCCCCNc1cccc(C(=O)Nc2cnc3ccccc3c2)c1 [3-Heptylamino-N-quinolin-3-yl-benzamide] |  |
|  | 5.74 | 91% | 7.06 | CC1CC(C)CN(c2ccc(C(=O)Nc3cnc4ccccc4c3)cc2)C1 (centres unmarked) [4-(3,5-Dimethyl-piperidin-1-yl)-N-quinolin-3-yl-benzamide] |  |

| Structure (SMILES) | pIC50 (human VR1 [1]; [3]) | pIC50 (human VR1 [1]; [4]) | inhibition at 1 µM (human VR1 [2]; 3H-RTX binding) | pKi (human VR1 [2]; [5]) | pKi (human VR1 [2]; [6]) |
| --- | --- | --- | --- | --- | --- |
| CCCN(c1ccc(C(=O)Nc2cnc3ccccc3c2)cc1)C1CCCCC1 [4-(Cyclohexyl-propyl-amino)-N-quinolin-3-yl-benzamide] |  | 5.00 |  | 7.07 |  |
| CCCCCN1CCCc2cc(C(=O)Nc3cnc4ccccc4c3)ccc21 [1-Pentyl-1,2,3,4-tetrahydro-quinoline-6-carboxylic acid quinolin-3-ylamide] | 6.33 | 5.80 | 93% |  | 7.41 |
| CCCCC(C)(C)c1cc(OC)c(CCC(=O)Nc2cnc3ccccc3c2)c(OC)c1 [3-{4-(1,1-Dimethyl-pentyl)-2,6-dimethoxy-phenyl}-N-quinolin-3-yl-propionamide] |  | 6.00 | 96% |  | 7.97 |

— patent publication US8394828B2 (Janssen Pharmaceutica, NV, priority 2003, dated 2013)
